These results are taken from patent publication US7205299B2, “Indole derivatives having an apoptosis-inducing effect” (Zentaris GmbH, priority 2003, dated 2007).

Values after ≈ are worked out from the molar mass of the structure shown.

Assay [1] relates to human cervical carcinoma cell line KB/HeLa. As to the kind of experiment: XTT proliferation assay, KB/HeLa. Type of assay: cell-based. The text has this:
(§1) The antiproliferative activity of substances 1, 2, 4, 9, 11, 12, 13 and 15 was investigated in a proliferation test performed on established tumor cell lines (D. A. Scuderio et al. Cancer Res. 1988, 48, 4827–4833). The test which is used determines the cellular dehydrogenase activity and makes it possible to determine cell viability and determine cell number indirectly. The cell lines which are used are the human cervical carcinoma cell line KB/HeLa (ATCC CCL17), the ovarian adenocarcinoma cell line SKOV-3 (ATCC HTB77), the human glioblastoma cell line SF-268 (NCI 503138) and the lung carcinoma cell line NCI-H460 (NCI 503473).
For orientation: Tetrazolium assays rely on reduction of a dye to a coloured formazan, in cell work by metabolically active cells.

Assay [2] has as its system ovarian adenocarcinoma cell line SKOV-3. As to the kind of experiment: XTT proliferation assay, SKOV-3. In kind it is cell-based, human.
Description: as §1

Assay [3] concerns human glioblastoma cell line SF-268. Description: XTT proliferation assay, SF-268. Type of assay: cell-based.
Description: as §1

Assay [4] concerns lung carcinoma cell line NCI-H460. Description: XTT proliferation assay, NCI-H460. Type of assay: cell-based, human.
Description: as §1

In assay [5] the test system is acute myeloid leukemia cell line LT12. As to the kind of experiment: XTT proliferation assay, LT12. Type of assay: cell-based. As to conditions: Rattus norvegicus. The text has this:
(§2) For further characterization, substances 1, 2, 4 and 11 were investigated with regard to their effect on mulitdrug-resistance cell lines as compared with that on nonresistant wild-type cell lines.
(§3) The cell lines which were investigated are the murine cell line L1210, the acute myeloid leukemia cell line LT12 and the resistant lines L1210/mdr and LT12/mdr. The murine cell line P388 (methylcholanthrene-induced lymphoid neoplasm) and doxorubicin-resistant P388 were also included as test systems.
(§4) The test results are summarized in Table 2 below: • XTT proliferation assay, EC50 in μg/ml

Another assay relates to resistant line LT12/mdr. Description: XTT proliferation assay, LT12/mdr. In kind it is cell-based. As to conditions: Rattus norvegicus, LT12mdr.
Description: as §2, §3, §4

The test system of the next assay is murine cell line L1210. As to the kind of experiment: XTT proliferation assay, L1210. The settings on record: Mus musculus. In kind it is cell-based.
Description: as §2, §3, §4

Assay [6] has as its system resistant line L1210/mdr (L1210VCR). Description: XTT proliferation assay, L1210VCR. In kind it is cell-based, murine. The settings on record: Mus musculus.
Description: as §2, §3, §4

A further assay deals with murine cell line P388. As to the kind of experiment: XTT proliferation assay, P388. In kind it is cell-based. As to conditions: Mus musculus.
Description: as §2, §3, §4

Assay [7] concerns doxorubicin-resistant P388. Description: XTT proliferation assay, P388ADR. The settings on record: Mus musculus. Type of assay: cell-based, murine.
Description: as §2, §3, §4

For a further assay, the target named is bovine tubulin (Bos taurus, UniProt P81947+Q6B856). Description: Inhibition of tubulin polymerization. In kind it is biochemical. As to conditions: summary of Table 3. The procedure: Substances 1, 4, 9, 11, 12, 13 and 15 were tested for their ability to inhibit the polymerization of bovine tubulin in an in-vitro test (D. M. Bollag et al. Cancer Res. 1995, 55, 2325–2333). This test uses-tubulin which has been purified by cycles of polymerization and depolymerization and which is caused to polymerize by adding GTP and heating it. Table 3 gives the EC50 values causing inhibition of the polymerization of tubulin containing 30% associated proteins (MPAs).
bovine tubulin, sequence (P81947 whole entry): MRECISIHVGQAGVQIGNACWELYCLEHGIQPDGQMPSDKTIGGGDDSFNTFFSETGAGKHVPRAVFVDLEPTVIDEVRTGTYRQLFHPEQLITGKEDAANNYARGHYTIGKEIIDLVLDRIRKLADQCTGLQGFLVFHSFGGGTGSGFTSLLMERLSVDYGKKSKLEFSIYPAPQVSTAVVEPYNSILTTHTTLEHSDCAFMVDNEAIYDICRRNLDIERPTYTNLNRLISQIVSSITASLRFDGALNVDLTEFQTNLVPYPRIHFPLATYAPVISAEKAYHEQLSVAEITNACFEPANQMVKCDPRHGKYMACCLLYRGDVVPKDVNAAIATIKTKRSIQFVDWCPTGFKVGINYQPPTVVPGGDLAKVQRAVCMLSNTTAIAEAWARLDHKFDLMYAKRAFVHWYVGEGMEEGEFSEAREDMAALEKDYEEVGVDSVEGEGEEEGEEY
bovine tubulin, sequence (Q6B856 whole entry): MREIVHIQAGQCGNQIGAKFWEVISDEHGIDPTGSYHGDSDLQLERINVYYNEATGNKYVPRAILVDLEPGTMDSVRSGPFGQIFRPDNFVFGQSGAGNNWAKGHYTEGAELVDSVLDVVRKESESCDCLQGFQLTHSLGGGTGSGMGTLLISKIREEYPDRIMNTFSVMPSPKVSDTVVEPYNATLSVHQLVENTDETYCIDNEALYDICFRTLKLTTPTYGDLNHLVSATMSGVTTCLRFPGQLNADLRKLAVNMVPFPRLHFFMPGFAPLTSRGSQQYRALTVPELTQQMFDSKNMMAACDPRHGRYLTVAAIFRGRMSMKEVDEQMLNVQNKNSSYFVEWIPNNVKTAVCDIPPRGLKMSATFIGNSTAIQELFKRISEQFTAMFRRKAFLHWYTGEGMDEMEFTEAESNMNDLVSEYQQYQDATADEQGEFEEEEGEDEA

In another assay the test system is KB/HeLa cells. As to the kind of experiment: Cell cycle analysis (G2/M arrest). In kind it is cell-based. The settings on record: Homo sapiens, 24 hours, 37° C., read-out: EC50 (50% of cells in G2/M). The procedure:
For the cell cycle analysis, KB/HeLa cells were treated with different concentrations of the test substances (0.1–1000 nM) at 37° C. for 24 hours.
The percentage of cells arrested in the G2/M phase of the cell cycle after having been treated with reference substances or selected test substances is shown in Table 4 below. The results were analyzed using special analytical software (ModFit™).

Assay [8] addresses human DNA topoisomerase II (Homo sapiens, UniProt P11388). Description: kDNA assay for testing topoisomerase II activity. In kind it is biochemical. As to conditions: compound 1 at 100, 31.6 and 10 μM; reference compounds 100 μM. The procedure: In this assay, which was described by P. Arimondo (Anti-Cancer Drug Design 2000, 15(6), 413–421), kDNA is treated with human DNA topoisomerase II in the absence or presence of the test compounds. In the assay, compound 1 according to the invention was tested at three different concentrations (100, 31.6 and 10 μM). A positive control and the reference compounds m-amsacrine (m-amsa), paclitaxel (Taxol) and vincristine, with the concentration in each case being 100 μM, were used for comparison.
2 μL of 10× assay buffer, 1 μL of kDNA (200 ng), 0.5 μL of human topoisomerase II (1 unit) and 15.5 μL of H2O are added by pipette to 1 μL of initially introduced test substance (20 times concentrated in 100% DMSO) and the reagents are mixed.
The reaction assay samples are placed in a heating block which has been preheated to 37° C. and incubated at 37° C. for 10 min. The incubation is stopped after adding 4 μL of 5× Stop buffer and the substance is subsequently extracted with CIA. After that, 20 μL of the supernatant are loaded onto a 1% agarose gel containing 0.25 μg of ethidium bromide/mL and separated at 100 V for 1 h. Finally, the gel is photographed under UV excitation (see FIG. 1). The inhibition of the decatenation of kDNA is quantified using the GelPro® Analyzer Software (see FIG. 2).

The target of a further assay is human topoisomerase II (Homo sapiens, UniProt P11388). As to the kind of experiment: pRYG relaxation assay for testing topoisomerase II activity. Type of assay: biochemical. As to conditions: compound 1 at 100, 31.6 and 10 μM; reference compounds 316 and 100 μM. The procedure: In the assay, the compound 1 according to the invention was tested at three different concentrations (100, 31.6 and 10 μM). The reference compounds m-amsacrine, paclitaxel (Taxol) and vincristine were used, at concentrations of 316 and 100 μM, for comparison.
human topoisomerase II, sequence (P11388 whole entry): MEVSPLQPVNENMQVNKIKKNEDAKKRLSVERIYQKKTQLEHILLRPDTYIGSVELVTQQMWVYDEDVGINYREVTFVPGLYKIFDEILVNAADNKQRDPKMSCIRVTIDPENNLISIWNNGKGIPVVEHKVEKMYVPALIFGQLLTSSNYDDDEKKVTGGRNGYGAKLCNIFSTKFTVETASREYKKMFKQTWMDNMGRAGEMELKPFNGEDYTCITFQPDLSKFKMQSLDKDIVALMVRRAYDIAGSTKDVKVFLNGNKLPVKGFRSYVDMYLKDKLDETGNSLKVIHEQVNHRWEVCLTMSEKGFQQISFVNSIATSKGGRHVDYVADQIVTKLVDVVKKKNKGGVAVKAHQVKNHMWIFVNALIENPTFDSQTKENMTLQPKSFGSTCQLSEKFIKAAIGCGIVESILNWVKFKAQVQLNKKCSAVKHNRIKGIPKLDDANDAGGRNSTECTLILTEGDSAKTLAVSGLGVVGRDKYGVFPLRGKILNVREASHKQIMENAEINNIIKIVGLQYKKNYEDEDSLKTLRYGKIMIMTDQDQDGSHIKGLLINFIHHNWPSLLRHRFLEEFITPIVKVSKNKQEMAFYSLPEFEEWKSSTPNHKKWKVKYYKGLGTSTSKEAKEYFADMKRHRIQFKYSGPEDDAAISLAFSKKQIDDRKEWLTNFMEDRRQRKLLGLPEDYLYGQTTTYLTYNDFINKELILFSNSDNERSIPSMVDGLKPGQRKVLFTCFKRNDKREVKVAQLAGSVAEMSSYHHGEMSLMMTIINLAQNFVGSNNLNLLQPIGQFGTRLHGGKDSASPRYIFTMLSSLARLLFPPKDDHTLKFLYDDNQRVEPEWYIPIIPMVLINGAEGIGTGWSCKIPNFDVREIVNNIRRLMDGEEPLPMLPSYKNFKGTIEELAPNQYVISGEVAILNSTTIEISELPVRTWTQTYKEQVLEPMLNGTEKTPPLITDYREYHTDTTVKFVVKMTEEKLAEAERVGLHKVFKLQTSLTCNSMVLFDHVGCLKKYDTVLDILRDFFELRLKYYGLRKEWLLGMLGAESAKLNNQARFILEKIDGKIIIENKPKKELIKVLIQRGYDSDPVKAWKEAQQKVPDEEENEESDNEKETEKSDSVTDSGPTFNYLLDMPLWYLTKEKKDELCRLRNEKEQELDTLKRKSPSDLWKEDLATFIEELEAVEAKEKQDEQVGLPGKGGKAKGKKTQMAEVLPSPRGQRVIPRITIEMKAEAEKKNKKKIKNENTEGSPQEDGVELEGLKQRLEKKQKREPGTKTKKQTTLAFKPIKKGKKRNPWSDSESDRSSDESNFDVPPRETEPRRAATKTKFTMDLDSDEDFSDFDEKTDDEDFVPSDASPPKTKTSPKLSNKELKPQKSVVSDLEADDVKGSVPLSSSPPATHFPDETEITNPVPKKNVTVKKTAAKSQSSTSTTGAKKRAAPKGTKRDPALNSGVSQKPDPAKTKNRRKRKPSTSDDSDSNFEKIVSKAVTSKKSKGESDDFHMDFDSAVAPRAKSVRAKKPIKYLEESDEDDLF
2 μL of 10× assay buffer, 0.5 μL of pRYG DNA (125 ng), 0.5 μL of human topoisomerase II (1 unit) and 16 μL of H2O are added by pipette to 1 μL of initially introduced test substance (20 times concentrated in 100% DMSO) and the reagents are mixed. The reaction assay samples are placed in a heating block which has been preheated to 37° C. and incubated at 37° C. for 30 min. The incubation is stopped after adding 4 μL of 5× Stop buffer. After that, 10 μL of the assay sample are loaded onto a 1.2% agarose gel containing 0.25 μg of ethidium bromide/mL and separated at 100 V for 2.5 h. Finally, the gel is photographed under UV excitation (see FIG. 3). The inhibition of pRYG relaxation is quantified using the GelPro® Analyzer Software (see FIG. 4).

human DNA topoisomerase II, sequence (P11388 whole entry): as above

With `O=C(Nc1ccc2ncccc2c1)C(=S)c1cn(Cc2ccc(Cl)cc2)c2ccccc12` [Compound 11, 2-[1-(4-chlorobenzyl)-1H-indol-3-yl]-N-quinolin-6-yl-2-thioxoacetamide], the EC50 in assay [1] (Homo sapiens, HeLa) stood at 0.036 µg/mL (≈ 0.079 µM); in assay [2] (Homo sapiens, SK-OV-3, read-out: XTT proliferation assay, EC50, SKOV3), 0.029 µg/mL (≈ 0.0636 µM); in assay [3] (Homo sapiens), 0.036 µg/mL (≈ 0.079 µM); in [4] (Homo sapiens), 0.057 µg/mL (≈ 0.125 µM); in assay [5] it was 0.023 µg/mL (≈ 0.0504 µM); in the assay with resistant line LT12/mdr, 0.054 µg/mL (≈ 0.118 µM). Besides, the EC50 in the assay on murine cell line L1210 turned out to be 0.052 µg/mL (≈ 0.114 µM); in assay [6], 0.067 µg/mL (≈ 0.147 µM); with murine cell line P388, 0.018 µg/mL (≈ 0.0395 µM); in [7], 0.051 µg/mL (≈ 0.112 µM); in the assay with KB/HeLa cells it was 41.8 nM. Further, the “inhibitory effect on tubulin polymerization (in words)” value on bovine tubulin is “very potent inhibitory effect”.
Consider `O=C(Nc1cccc2cnccc12)C(=O)c1cn(Cc2ccc(Cl)cc2)c2ccccc12` [Compound 13, 2-[l-(4-chlorobenzyl)-1H-indol-3-yl]-N-isoquinolin-5-yl-2-oxoacetamide], for which the “XTT proliferation assay, EC50, KB/HeLa” value in assay [1] (KB/HeLa) was above 3.16 µg/mL. Moreover, the “XTT proliferation assay, EC50, SKOV3” value in assay [2] (SKOV3) is above 3.16 µg/mL. Further, the “XTT proliferation assay, EC50, SF-268” value in assay [3] is above 3.16 µg/mL. Further, in [4], the “XTT proliferation assay, EC50, NCI-H460” value is above 3.16 µg/mL. Besides, the “inhibitory effect on tubulin polymerization (in words)” value on bovine tubulin was “do not exert any effect”.
As to `O=C1c2c(O)ccc(O)c2C(=O)c2c(NCCNCCO)ccc(NCCNCCO)c21` [Mitoxantrone, mitoxantrone], the EC50 came out at 0.006 µg/mL (≈ 0.0135 µM) in assay [5]; 3.1 µg/mL (≈ 6.97 µM) in the assay with resistant line LT12/mdr; 0.09 µg/mL (≈ 0.202 µM) in the assay with murine cell line L1210; 2.1 µg/mL (≈ 4.72 µM) in assay [6]; 0.053 µg/mL (≈ 0.119 µM) in the assay with murine cell line P388; 0.608 µg/mL (≈ 1.37 µM) in [7]. Moreover, the EC50 in the assay with KB/HeLa cells stood at 25.3 nM.
In the case of `CC(=O)O[C@H]1C(=O)[C@@]2(C)[C@H]([C@H](OC(=O)c3ccccc3)[C@]3(O)C[C@H](OC(=O)[C@H](O)[C@@H](NC(=O)c4ccccc4)c4ccccc4)C(C)=C1C3(C)C)[C@]1(OC(C)=O)CO[C@@H]1C[C@@H]2O` [Paclitaxel, paclitaxel], the EC50 in assay [5] is 0.005 µg/mL (≈ 0.00586 µM); in the assay on resistant line LT12/mdr, 0.34 µg/mL (≈ 0.398 µM); in the assay with murine cell line L1210 it was 0.048 µg/mL (≈ 0.0562 µM); in [6], above 3.16 µg/mL; in the assay with murine cell line P388, 0.035 µg/mL (≈ 0.041 µM); in assay [7] it was above 3.16 µg/mL. Moreover, in the assay on KB/HeLa cells, the EC50 was 26.9 nM. The “inhibition of topoisomerase II, kDNA decatenation” value in [8] is given as “neither paclitaxel nor vincristine was observed to have any inhibitory effects”. In addition, the “inhibition of topoisomerase II, pRYG DNA relaxation” value against human topoisomerase II is “neither paclitaxel nor vincristine was observed to have any inhibitory effects”.
